Source: patent US8349897B2, “Biphenyloxyacetic acid derivatives for the treatment of respiratory disease” (Astrazeneca AB, priority 2005, dated 2013)

target: T1, rhCRTh2 (Homo sapiens, UniProt Q9Y5Y4); assay: Ligand binding assay ([3H]PGD2 SPA, HEK cell membranes); settings: [3H]PGD2 displacement, membranes of HEK cells expressing rhCRTh2/Gα16, SPA beads, 2 hours room temperature; read-out: pIC50 value (converted)
T1 construct: expressed in transfected cells; host or cells: HEK cells (membrane preparation)
T1 sequence (Q9Y5Y4 1-395): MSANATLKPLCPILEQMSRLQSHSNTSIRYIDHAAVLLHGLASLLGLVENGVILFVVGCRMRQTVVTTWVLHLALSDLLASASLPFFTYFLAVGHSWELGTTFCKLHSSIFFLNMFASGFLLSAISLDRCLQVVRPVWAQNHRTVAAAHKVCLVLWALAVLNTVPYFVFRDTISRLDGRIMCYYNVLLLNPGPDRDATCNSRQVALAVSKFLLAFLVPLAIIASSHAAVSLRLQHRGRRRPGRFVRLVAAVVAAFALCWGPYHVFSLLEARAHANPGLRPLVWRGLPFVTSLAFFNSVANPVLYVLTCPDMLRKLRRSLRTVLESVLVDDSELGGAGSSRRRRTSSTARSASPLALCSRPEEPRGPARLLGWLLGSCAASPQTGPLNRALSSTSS
Description: [^3H]PGD2 was purchased from Perkin Elmer Life Sciences with a specific activity of 100-210 Ci/mmol. All other chemicals were of analytical grade.
HEK cells expressing rhCRTh2/Gα16 were routinely maintained in DMEM containing 10% Foetal Bovine Serum (HyClone), 1 mg/ml geneticin, 2 mM L-glutamine and 1% non-essential amino acids. For the preparation of membranes, the adherent transfected HEKcells were grown to confluence in two layer tissue culture factories (Fisher, catalogue number TKT-170-070E). Maximal levels of receptor expression were induced by addition of […] sodium butyrate for the last 18 hours of culture. The adherent cells were washed once with phosphate buffered saline (PBS, 50 ml per cell factory) and detached by the addition of 50 ml per cell factory of ice-cold membrane homogenisation buffer [20 mM HEPES (pH 7.4), 0.1 mM dithiothreitol, 1 mM EDTA, 0.1 mM phenyl methyl sulphonyl fluoride and 100 μg/ml bacitracin]. […] The final pellet was re-suspended in 4 ml of membrane homogenisation buffer per cell factory used and the protein content determined. […]
All assays were performed in Corning clear bottomed, white 96-well NBS plates (Fisher). […] (The optimum coating concentrations were determined for each batch of membranes) The beads were pelleted by centrifugation (800×g for 7 minutes at 4° C.), washed once with assay buffer (50 mM HEPES pH 7.4 containing 5 mM magnesium chloride) and finally re-suspended in assay buffer at a bead concentration of 10 mg/ml.
Each assay contained 20 μl of 6.25 nM [^3H]PGD2, 20 μl membrane saturated SPA beads both in assay buffer and 10 μl of compound solution or 13,14-dihydro-15-keto prostaglandin D2 (DK-PGD2, for determination of non-specific binding, Cayman chemical company). […] The assay plate was incubated at room temperature for 2 hours and counted on a Wallac Microbeta liquid scintillation counter (1 minute per well).

SMILES | IC50 [nM]
O=C(O)COc1ccc(F)cc1-c1ccc(S(=O)(=O)c2ccccc2)c(C(F)(F)F)c1 [Example 7, {[5-fluoro-4′-(phenylsulfonyl)-3′-(trifluoromethyl)biphenyl-2-yl]oxy}acetic acid] | 3.16
C[C@H](Oc1ccc(Cl)cc1-c1ccc(S(=O)(=O)c2ccc(F)cc2)cc1)C(=O)O [Example 8, (2S)-2-({5-chloro-4′-[(4-fluorophenyl)sulfonyl]biphenyl-2-yl}oxy)propanoic acid] | 1.58
C[C@H](Oc1ccc(F)cc1-c1ccc(S(=O)(=O)c2ccccc2)cc1Cl)C(=O)O [Example 15, (2S)-2-{[2′-chloro-5-fluoro-4′-(phenylsulfonyl)biphenyl-2-yl]oxy}propanoic acid] | 1.58
